Experimental data: patent US20100056623A1, “FUMAGILLOL DERIVATIVES OR METHOD FOR PREPARATION OF FUMAGILLOL DERIVATIVES, AND PHARMACEUTICAL COMPOSITIONS COMPRISING THE SAME” (CHONG KUN DANG PHARMACEUTICAL CORP., priority 2005, published 2010)

Columns and labels:
[1] = system: CPAE (calf pulmonary artery endothelial cell); assay: Inhibiting activity on cell proliferation, SRB analysis (CPAE); format: cell-based; conditions: for IC50: Bos taurus, Endothelial cell, 72 h, CPAE cells, 3 days with drug, SRB, read-out: IC50 (nM) CAPE; for effect compared to CKD-731 against CPAE: relative to CKD-731; for effect compared to CKD-731 against SI: safety/selectivity index relative to CKD-731
Experimental: (§1) In order to compare the safety index (SI) of CPAE (calf pulmonary artery endothelial cell) with that of HUVEC (human umbilical vein endothelial cell), L5178Y lymphoma that was isolated from murine thymus was used. The safety index was defined as IC50 ratio of L5178Y against CPAE (IC50L5178Y/IC50CPAE). All cell lines, which had been kept in liquid nitrogen tank, were used after being thawed and subcultured 2˜3 times in T-flask. CPAE, HUVEC and L5178Y were cultured in MEM culture medium (20% FBS, 50˜100 μg/ml ECGS, 0.15% baking soda, 0.05 mg/ml gentamicin), M199 culture medium (20% FBS, 0.22% baking soda, 100 μg/ml heparin, 3 ng/ml bFGF, 0.05 mg/ml gentamicin) and RPMI 1640 culture medium (10% FBS, 0.2% baking soda, 0.05 mg/ml gentamicin), respectively, under the condition of 37° C. and 5% CO2.
(§2) The drug was prepared by being gradationally diluted to two or ten times by using PBS, 20 μl of the solution was added to each well of 96 well plate in triplicate. The cell, which is being incubated, was treated with trypsin to give cell suspension. The number of cell thereafter was counted. And 180 μl of the solution was inoculated to each well and cultured.
The cell was cultured with drugs for 3 days and then 50 μl of 50% TCA was added thereto (final concentration 10%). Subsequently the cell was fixed by being left alone at 4° C. for 1 hour. The well was washed 4 times by distilled water and then dried. After that 100 μl of SRB (Sulforhodamine B, Sigma Chemical Co.) solution (0.4% w/v in 1% acetic acid) was added thereto and then it was left alone at ordinary temperature for 30 minutes. Thereafter the well was washed 4 times by 1% acetic acid and dried. And then after adding 200 μl of 10 mM tris buffer, the absorbance at 570 nm was measured by automatic microplate reader (Model: Elx 808, Bio-Tek Instrument, INC). The viability was calculated from the ratio of the absorbance of the control to which drugs were not added and the well to which drugs were added.

L5178Y lymphoma = assay: Inhibiting activity on cell proliferation, MTT analysis (L5178Y); format: cell-based, murine; conditions: Mus musculus, 72 h, L5178Y lymphoma cells, 3 days with drug
Experimental: as §1, §2
The tumor cell was cultured with drugs for 3 days and then 50 μl of MTT (3-(4,5-dimethylthiazole-2-yl)-2,5-diphenyl tetrazolium bromide, Sigma Chemical Co.) solution (2.5 mg/ml in PBS) was added thereto. And it was further cultured for 4 hours at 37° C. Culture medium was removed carefully. And after dissolving formazan crystal by adding 150 μl of DMSO, the absorbance at 570 nm was determined.

SD rats = assay: Acute oral toxicity test on rats; format: in vivo; conditions: single oral dose 1 g/kg/15 ml in 0.5% methylcellulose
Experimental: The acute toxicity test was carried out using 6-weeks-old SD rats. Each Example of O-(4-(2-hydroxyethoxy)cinnamoyl)fumagillol (a compound of the Example 1), O-(3,5-dimethoxy-4-(2-hydroxyethoxy)cinnamoyl)fumagillol (a compound of the Example 2) and O-(4-(2-hydroxyethoxy)-3-methoxycinnamoyl)fumagillol (a compound of the Example 3) was suspended in 0.5% methylcellulose, and then orally administrated once to 5 of each male and each female rats per group by dosage of 1 g/kg/15 ml. After administrating the test substances, the death of the rats, clinic symptoms and the change of weight were observed. And also hematologic and blood biochemical tests were executed, the abnormality of abdominal and thoracic organs was observed by autopsy with the naked eye.

Solubility test = format: physicochemical; conditions: ordinary temperature
Experimental: To a constant amount (400 mg) of each compounds of present invention, a constant amount of demineralized water, methanol and ethanol were added separately, and the solution was stirred at ordinary temperature.

[2] = 1 month
Experimental: (§3) Each compound of the present invention was kept in an air-tight vessel for 1 month at 40±2° C. and 75±5% of relative humidity. Thereafter the HPLC purity test was executed.
(§4) 25 mL of the solution was precisely taken, and poured into 100 mL volumetric flask. Acetonitrile/20 mM ammonium acetate aqueous solution (50:50) was added thereto to be the total volume of 100 ml. The solution was filtrated, and the filtrate was used as a test liquid.
(§5) (2) Operational Condition of Instrument. • Column: Kromasil®C18 (UG 100 Å, 5 μm, 4.6 mm Φ×250 mm) • Column temperature: 30° C. • Mobil phase: 20 mM ammonium acetate (pH 4.2) buffer:acetonitrile (55:45) • Injection volume: 20 μL • Flow rate: 1.2 mL/min • Detector: UV light-absorption Spectrophotometer (detection wavelength: 306 nm)

[3] = Chemical stability test (HPLC purity); conditions: for change of purity (in words) / 1 month Other peaks (%) / 1 month Parent peak (%): 1 month at 40±2° C.; for change of purity (in words) / 1 month Other peaks (%) / 1 month Parent peak (%) / change of purity (%): 75±5% relative humidity; for 1 month Other peaks (%) / 1 month Parent peak (%) / Initial Other peaks (%) / Initial Parent peak (%): HPLC; for 1 month Other peaks (%) / 1 month Parent peak (%): air-tight vessel; for change of purity (%): initial vs 1 month at 40±2° C.
Experimental: as §3, §4, §5

Row | SMILES | IC50 [1] [nM] | Selectivity Index (L5178Y/CAPE) ([1]; IC50 L5178Y / IC50 CPAE) | effect compared to CKD-731 against CPAE [1] | effect compared to CKD-731 against SI [1] | IC50 (L5178Y lymphoma) [nM] | clinic symptoms, death and change by toxicity (autopsy) (SD rats) | The amount of solvent to dissolve 1 g of the compounds (ml), demineralized water (Solubility test) [mL] | The amount of solvent to dissolve 1 g of the compounds (ml), ethanol (Solubility test) [mL] | The amount of solvent to dissolve 1 g of the compounds (ml), methanol (Solubility test) [mL] | chemical stability compared to known compounds [2] | change of purity (in words) [3] | 1 month Other peaks (%) [3] [%] | 1 month Parent peak (%) [3] [%] | Initial Other peaks (%) [3] [%] | Initial Parent peak (%) [3] [%] | change of purity (%) [3] [%]
1 | COc1cc(/C=C/C(=O)O[C@@H]2CC[C@]3(CO3)[C@@H]([C@@]3(C)O[C@@H]3CC=C(C)C)[C@@H]2OC)cc(OC)c1OCCO [Example 2, O-(3,5-dimethoxy-4-(2-hydroxyethoxy)cinnamoyl)fumagillol] | 0.0025 | 1.00 × 10^7 | equivalent or not smaller than twice effect of CKD-731 | equivalent or more effect of CKD-731 | 25000 | no notable clinic symptoms, death and change by toxicity | 146 | 59 | 37 | more excellent chemical stability than TNP-470, CKD-732 and CKD-731 | hardly showed a change of purity | 0.9 | 99.1 | 0.9 | 99.1 | 0
2 | COc1cc(/C=C/C(=O)O[C@@H]2CC[C@]3(CO3)[C@@H]([C@@]3(C)O[C@@H]3CC=C(C)C)[C@@H]2OC)ccc1OCCO [Example 3, O-(4-(2-hydroxyethoxy)-3-methoxycinnamoyl)fumagillol] | 0.0045 | – | equivalent or not smaller than twice effect of CKD-731 | equivalent or more effect of CKD-731 | 56400 | no notable clinic symptoms, death and change by toxicity | 142 | 61 | 45 | more excellent chemical stability than TNP-470, CKD-732 and CKD-731 | hardly showed a change of purity | 1.6 | 98.4 | 1.5 | 98.5 | 0.1
